Measurements taken from paper PMC4338040, “Design of a Multicomponent Peptide-Woven Nanocomplex for Delivery of siRNA” (PLoS ONE, 2015).

Each substance was assayed on siRNA (assay: Gel retardation assay of siRNA encapsulation). Conditions: 2% agarose, 100 pmol siRNA mixed with peptide 30 min at room temperature, ratios 1:5 to 1:50.
Type: physicochemical
Description: Peptide-woven siRNA nanocomplexes (PwSN) were prepared by mixing siRNA in diethylpyrocarbonate (DEPC)-treated water (100 pmoles) with peptide carrier with a molar ratio of 1:5 to 1:50 (siRNA: peptide) for 30 min at room temperature. The samples were subjected on 2% agarose gels electrophoresis to examine siRNA encapsulation. To test the stability of the siRNA nanocomplex against RNase A, the nanocomplex containing 100 pmol of siRNA mixed with 20-fold molar excess of peptides, then was incubated in the presence or absence of RNase A (0.2 μg) for up to 6 h at 37°C. After incubation, the RNase A activity was inhibited by addition of 2% sodium dodecyl sulfate (SDS) and subjected to agarose gel electrophoresis.

| Substance | siRNA:peptide molar ratios at which siRNA is encapsulated |
| --- | --- |
| CRKRLDRNC-GG-RRRRRRRRR [I4R-9r, interleukin-4 receptor-targeting peptide (I4R) connected by GG to nine D-arginine peptide] | between 1:20 and 1:50 |

The substances below were run on siRNA (assay: SPR analysis of peptide binding to immobilized siRNA). Conditions: peptide with sHGP-9r (19:1 molar ratios), 10, 5, 2.5 and 1.25 μM, biotinylated siRNA on streptavidin chip, 25°C.
Description: The dynamics of PwSN formation were studied by SPR analysis (SR7500 DC, Reichert Inc, Depew, NY). 5′-Biotinylated siRNAs were diluted to 1 μM in HBS buffer (10 mM HEPES, pH 7.4, 150 mM NaCl, 3.4 mM EDTA, 0.005% Tween20), heated at 85°C for 10 min, cooled to room temperature, diluted to 20 fmol/μl in running buffer (10 mM HEPES, pH 7.4, 150 mM NaCl, 62.5 μg/ml bovine serum albumin, 125 μg/ml tRNA, 1 mM dithiothreitol, 0.05% Tween20), and injected at 10 μl/min. 50–100 response units of siRNA were coated per flow channel on streptavidin-coated sensor chip (NeutrAvidin Surface chip; Reichert Analytical Instrument, Depew, NY). 2-min injections of four different peptide concentrations (10, 5, 2.5, and 1.25 μ M) were injected over the sensor chip surface at 25°C with a flow rate of 25 μl/min. The surface was regenerated by removing bound peptides with a 180-s 2 M NaCl injection and 20-s 0.1% SDS followed by a binding buffer injection to rinse the needle. Sensorgrams were fit to kinetic titration model using Clamp program. To monitor dissociation between peptide and siRNA upon heparan sulfate competition, The 2.5 μM of peptides were injected to reach saturated binding and different concentrations of heparan sulfate were injected.

| Substance | binding affinity for siRNA (in words) |
| --- | --- |
| CRKRLDRNCggRRARRRRRR [I4R-9r(A1*), I4R-9r variant with one arginine of 9r replaced by alanine, other position] | moderate affinity |
| CRKRLDRNCggRRRRARRRR [I4R-9r(A1), I4R-9r variant with one arginine of 9r replaced by alanine] | moderate affinity |

The remaining lines, values ahead:

| binding affinity for siRNA (in words) | Substance |
| --- | --- |
| strongest binding affinity | CRKRLDRNC-GG-RRRRRRRRR [I4R-9r, interleukin-4 receptor-targeting peptide (I4R) connected by GG to nine D-arginine peptide] |
| lowest affinity | CRKRLDRNCggRARRARRAR [I4R-9r(A3), I4R-9r variant with three alanine substitutions] |
| lowest affinity | CRKRLDRNCggRRARRRARR [I4R-9r(A2), I4R-9r variant with two alanine substitutions] |
